From PubChem BioAssay (NCI)
Several values for one entry are separate records, joined by “and”; a condition that tells them apart may be missing. Equal values may be shown once.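 Briefly, cells in 96-well plates were exposed to five compound concentrations for 48 h, and endpoints were estimated by linear interpolation. The concentration for 50% growth inhibition is given as GI50. TGI marks complete inhibition of growth.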

Tests used:
Assay in all cases: inhibition of tumour cell growth, NCI panel, 48 h
CAKI-1 renal = system: CAKI-1 renal
786-0 renal = system: 786-0 renal
SK-MEL-2 melanoma = system: SK-MEL-2 melanoma
NCI-H522 lung = system: NCI-H522 lung
NCI-H226 lung = system: NCI-H226 lung
HCT-116 colon = system: HCT-116 colon
RXF 393 renal = system: RXF 393 renal
NCI/ADR-RES ovarian = system: NCI/ADR-RES ovarian
RPMI-8226 leukemia = system: RPMI-8226 leukemia
MDA-N = system: MDA-N
MALME-3M melanoma = system: MALME-3M melanoma

SMILES	TGI (CAKI-1 renal)	TGI (786-0 renal) [µM]	TGI (SK-MEL-2 melanoma) [µM]	TGI (NCI-H522 lung) [µM]	TGI (NCI-H226 lung)	TGI (HCT-116 colon)	TGI (RXF 393 renal)	TGI (NCI/ADR-RES ovarian) [µM]	TGI (RPMI-8226 leukemia)	TGI (MDA-N) [µM]	GI50 (CAKI-1 renal)	GI50 (SK-MEL-2 melanoma)	TGI (MALME-3M melanoma) [µM]	GI50 (NCI-H522 lung)	GI50 (NCI-H226 lung)	GI50 (HCT-116 colon)	GI50 (NCI/ADR-RES ovarian)
O=C(OCc1ccccc1)N1CCNCCN(C(=O)OCc2ccccc2)CCNCC1	55.1 µM	47.9	42.3	34.5	> 100 µM	42.9 µM	> 100 µM	> 100	47.3 µM	31	–	–	–	–	–	–	–
Cc1ccc(-c2cc(-c3ccco3)c(C#N)c(=S)n2C2OC(CO)C(O)C(O)C2O)cc1 (centres undefined)	46.9 µM and > 100 µM	> 100	> 100	> 100	53.9 µM and > 100 µM	18.5 µM and > 100 µM	45.4 µM and 45.3 µM	> 100	> 100 µM and 89.8 µM	> 100	17.6 µM and > 100 µM	39.3 µM and > 100 µM	> 100	29.5 µM and 65.4 µM	13.4 µM and 32.4 µM	4.91 µM and 25.3 µM	33.8 µM and > 100 µM
N=c1nnc2ccc(Cl)cc2n1O	> 100 µM	–	> 100	> 100	> 100 µM	> 100 µM	95.2 µM	> 100	> 100 µM	> 100	–	–	> 100	–	–	–	–
CC1CN(C)c2ccccc2N=C1NN (centres undefined)	> 100 µM	> 100	> 100	> 100	> 100 µM	> 100 µM	78.6 µM	> 100	> 100 µM	> 100	–	–	> 100	–	–	–	–
C=C1CCN2CC[C@@H](OC(=O)/C(C)=C\C)[C@@H]12	> 100 µM	> 100	> 100	> 100	> 100 µM	> 100 µM	> 100 µM	> 100	> 100 µM	> 100	–	–	> 100	–	–	–	–
COC(=O)C1=C(C(=O)OC)SC(=C2SCSC3=C2SC(C(=O)OC)=C(C(=O)OC)C32SC3=C(CCCC3)S2)S1	> 100 µM	> 100	> 100	> 100	> 100 µM	> 100 µM	70 µM	> 100	–	> 100	–	–	> 100	–	–	–	–
COc1cc(S(=O)(=O)Nc2nc(-c3ccc(N4C(=O)C(CC(=O)O)SC4c4cccs4)cc3)cs2)ccc1Cl (centres undefined)	> 100 µM	> 100	69.7	37.1	> 100 µM	> 100 µM	32.5 µM	76.6	–	> 100	–	–	72.2	–	–	–	–
CC1(C)O[C@H]2OC(CO[Si](C)(C)C(C)(C)C)C(N=[N+]=[N-])[C@H]2O1 (some centres undefined)	42.5 µM	32.7	32	–	38.7 µM	28.9 µM	32.6 µM	37.7	28.8 µM	53.8	–	–	31.7	–	–	–	–
C/C(=C\CBr)CCC(Br)C(C)(C)Br (centres undefined)	–	> 100	> 100	> 100	> 100 µM	> 100 µM	> 100 µM	> 100	> 100 µM	> 100	–	–	> 100	–	–	–	–
O=C1CCCCC1CN1CCCCC1 (centres undefined)	> 100 µM	> 100	> 100	4.42	> 100 µM	> 100 µM	> 100 µM	> 100	–	> 100	–	–	> 100	–	–	–	–
